Laboratory results published in patent publication US20250064947A1, “CYTOTOXICITY TARGETING CHIMERAS FOR FIBROBLAST ACTIVATION PROTEIN-EXPRESSING CELLS” (Glaxosmithkline Intellectual Property Development Limited, priority 2022, published 2025).

Molecular target: T1, FAP (Homo sapiens, UniProt Q12884)
T1 construct: Target cells: WI-38 cells (typically 1000-20,000 cells per well); endogenous in cells; host or cells: WI-38 cells
T1 sequence (Q12884 1-760): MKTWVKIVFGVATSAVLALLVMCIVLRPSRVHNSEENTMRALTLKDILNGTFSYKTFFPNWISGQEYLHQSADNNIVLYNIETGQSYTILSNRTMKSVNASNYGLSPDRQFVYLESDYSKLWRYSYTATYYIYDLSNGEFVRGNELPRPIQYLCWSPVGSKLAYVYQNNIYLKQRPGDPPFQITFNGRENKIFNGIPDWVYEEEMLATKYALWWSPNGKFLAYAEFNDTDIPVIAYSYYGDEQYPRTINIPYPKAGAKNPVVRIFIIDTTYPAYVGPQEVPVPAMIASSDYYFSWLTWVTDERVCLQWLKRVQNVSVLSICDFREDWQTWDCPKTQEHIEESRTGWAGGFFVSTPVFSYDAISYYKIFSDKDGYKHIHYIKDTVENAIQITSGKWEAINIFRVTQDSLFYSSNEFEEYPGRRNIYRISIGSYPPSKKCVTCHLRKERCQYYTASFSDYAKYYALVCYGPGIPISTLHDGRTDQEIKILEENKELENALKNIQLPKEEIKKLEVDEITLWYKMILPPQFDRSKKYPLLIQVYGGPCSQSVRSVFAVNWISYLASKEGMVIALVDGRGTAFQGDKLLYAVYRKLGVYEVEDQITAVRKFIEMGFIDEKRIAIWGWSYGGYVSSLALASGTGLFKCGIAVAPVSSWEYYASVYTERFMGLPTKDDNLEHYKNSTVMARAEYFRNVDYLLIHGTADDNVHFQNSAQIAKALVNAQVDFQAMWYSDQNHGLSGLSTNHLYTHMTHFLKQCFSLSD
Test: Antibody dependent cellular cytotoxicity (ADCC) reporter assay
Assay type: cell-based
Parameters: key to ADCC Reporter Assay pEC50: Inactive = pEC50 < 5
Settings: WI-38 target cells, Jurkat FcγRIIIa NFAT-luciferase reporter cells, with anti-cotinine antibody (SEQ ID NO: 11/12), 12-18 hours, average if more than one run
Procedure: An antibody dependent cellular cytotoxicity (ADCC) reporter assay was conducted using the following four assay components: (i) ARM compound of Formula (I) targeting FAP (concentrations ranging from […]); (ii) anti-cotinine antibody having a heavy chain sequence of SEQ ID NO: 11 and a light chain sequence of SEQ ID NO: 12 (rabbit variable region with human IgG1 Fc domain containing DE mutation (S239D/I332E)) (concentrations ranging from 0.01 μg/mL 200 μg/mL); (iii) Target cells: WI-38 cells (typically 1000-20,000 cells per well); and (iv) Reporter cells—Jurkat cells engineered to express FcγRIIIa with a reporter gene luciferase under the control of the NFAT promoter (typically 3000-75,000 cells per well). Reagents were combined in final volume of 20 μL in 384—well tissue culture treated plate. All four assay components were incubated together for about 12-18 hours. Thereafter, BioGlo Detection reagent (Promega) was added to the wells to lyse the cells and provide a substrate for the luciferase reporter protein.
Luminescence signal was measured on a microplate reader capable of measuring luminescence and signal:background was calculated by dividing the signal of a test well by the signal obtained when no compound of formula (I) was included in the assay. EC50 calculations were done using Graphpad Prism Software, specifically a nonlinear regression curve fit (Y=Bottom+(Top−Bottom)/(1+10^((Log EC50−X)*HillSlope))).
ARMs compounds of Formula (I) were tested for ADCC activity in the above assay in one or more experimental runs and the results are shown in Table 3 below. Potency of the compounds of Formula (I) is reported as a pEC50 values. The pEC50 value is the negative log of the EC50 value, wherein the EC50 value is half maximal effective concentration measured in molar (M). For compounds tested in more than one experimental run, the pEC50 value is reported as an average.

SMILES | EC50 (read-out: ADCC Reporter Assay pEC50 (converted)) [nM] | ADCC Reporter Assay pEC50
CN(CCNC(=O)[C@H]1CC[C@H](NC(=O)CCCO[C@H]2CC[C@H](OCCNC(=O)[C@H]3CC[C@H](NC(=O)CCCO[C@H]4CC[C@H](OCCNC(=O)[C@H]5CC(=O)N(C)[C@@H]5c5cccnc5)CC4)CC3)CC2)CC1)c1ccc2nccc(C(=O)NCC(=O)N3CC(F)(F)C[C@@H]3C#N)c2c1 (racemic) [Example 1, N-(2-((S)-2-Cyano-4,4-difluoropyrrolidin-1-yl)-2-oxoethyl)-6-(methyl(2-((1R,4R)-4-(4-(((1R,4R)-4-(2-((1R,4R)-4-(4-(((1 S,4R)-4-(2-((2S,3S)-1-methyl-5-oxo-2-(pyridin-3-yl)pyrrolidine-3-carboxamido)ethoxy)cyclohexyl)oxy)butanamido)cyclohexane-1-carboxamido)ethoxy)cyclohexyl)oxy)butanamido)cyclohexane-1-carboxamido)ethyl)amino) quinoline-4-carboxamide] | 3.98 | 
CN(CCNC(=O)[C@H]1CC[C@H](NC(=O)[C@H]2CC[C@H](NC(=O)CCCO[C@H]3CC[C@H](OCCNC(=O)[C@H]4CC(=O)N(C)[C@@H]4c4cccnc4)CC3)CC2)CC1)c1ccc2nccc(C(=O)NCC(=O)N3CC(F)(F)C[C@H]3C#N)c2c1 [Example 2, N-(2-((S)-2-cyano-4,4-difluoropyrrolidin-1-yl)-2-oxoethyl)-6-(methyl(2-((1R,4r)-((1R,4R)-4-(4-(((1S,4R)-4-(2-((2S,3S)-1-methyl-5-oxo-2-(pyridin-3-yl)pyrrolidine-3-carboxamido)ethoxy)cyclohexyl)oxy)butanamido)cyclohexane-1-carboxamido)cyclohexane-1-carboxamido)ethyl)amino)quinoline-4-carboxamide] |  | Inactive^1
CN(CCNC(=O)CCCO[C@H]1CC[C@H](OCCNC(=O)[C@H]2CC[C@H](NC(=O)CCCO[C@H]3CC[C@H](OCCNC(=O)[C@H]4CC(=O)N(C)[C@@H]4c4cccnc4)CC3)CC2)CC1)c1ccc2nccc(C(=O)NCC(=O)N3CC(F)(F)C[C@H]3C#N)c2c1 [Example 3, N-(2-((S)-2-cyano-4,4-difluoropyrrolidin-1-yl)-2-oxoethyl)-6-(methyl(2-(4-(((1R,4r)-4-(2-((1R,4R)-4-(4-(((1S,4R)-4-(2-((2S,3S)-1-methyl-5-oxo-2-(pyridin-3-yl)pyrrolidine-3-carboxamido)ethoxy)cyclohexyl)oxy)butanamido)cyclohexane-1-carboxamido)ethoxy)cyclohexyl)oxy)butanamido)ethyl)amino)quinoline-4-carboxamide] |  | Inactive
CN(CCNC(=O)[C@H]1CC[C@H](NC(=O)CCCO[C@H]2CC[C@H](OCCNC(=O)[C@H]3CC(=O)N(C)[C@@H]3c3cccnc3)CC2)CC1)c1ccc2nccc(C(=O)NCC(=O)N3CC(F)(F)C[C@H]3C#N)c2c1 [Example 4, N-(2-((S)-2-cyano-4,4-difluoropyrrolidin-1-yl)-2-oxoethyl)-6-(methyl(2-((1R,4r)-4-(4-(((1S,4R)-4-(2-((2S,3S)-1-methyl-5-oxo-2-(pyridin-3-yl)pyrrolidine-3-carboxamido)ethoxy)cyclohexyl)oxy)butanamido)cyclohexane-1-carboxamido)ethyl)amino)quinoline-4-carboxamide] |  | Inactive
CN(CCNC(=O)CCOCCOCCOCCOCCOCCOCCOCCOCCOCCOCCOCCOCCNC(=O)[C@H]1CC(=O)N(C)[C@@H]1c1cccnc1)c1ccc2nccc(C(=O)NCC(=O)N3CC(F)(F)C[C@H]3C#N)c2c1 [Example 5, N-(2-((S)-2-cyano-4,4-difluoropyrrolidin-1-yl)-2-oxoethyl)-6-(methyl(1-((2S,3S)-1-methyl-5-oxo-2-(pyridin-3-yl)pyrrolidin-3-yl)-1,41-dioxo-5,8,11,14,17,20,23,26,29,32,35,38-dodecaoxa-2,42-diazatetratetracontan-44-yl)amino)quinoline-4-carboxamide] |  | Inactive
